The source of these data is EP1656941A1, “Compositions for the treatment of diabetic nephropathy” (Clinigene International Private Limited, priority 2004, dated 2006).

Assay [1] deals with patients with type 1 diabetes mellitus and diabetic nephropathy. The note with it: Lewis et. al. 1993; cited from earlier work.
A further assay relates to Diabetic rats. The note with it: Utimura et. al. 2003, cited from earlier work.
Assay [2] deals with patients with diabetic nephropathy. Nature of the assay: 24-hour urine protein (proteinuria), Pyrogallol Red / SDS reagent method; open-labeled, randomized three-arm study. The format is in vivo, human. Details: 24h Urine protein (Mean) / Difference 24h Urine protein: unit not given here. An excerpt:
The study of the effect of MMF and lisinopril for the treatment of diabetic nephropathy was designed in the following manner.
In this study, a total of 30 patients were planned of which 18 were randomized and subjected to enter into one of the studies in which the patient groups each received MMF alone, lisinopril alone, or a combination of both MMF and lisinopril.
The primary end-point for this study was the proteinuria value obtained from the patients via 24-hour urine protein which was measured using the Calorimetric method Pyrogallol Red / SDS liquid stable single reagent.
The inclusion of a patient is based on the following criteria. Type 1 and type 2 diabetic patients; male and postmenopausal (Natural & surgical) female diabetic patients; age 18-65 years; micral test positive (albumin excretion rate 20-200 µgm/min); patient must be able to swallow the oral medications to be used in the study; patient must sign an informed consent prior to the study.
The exclusion of a subject from the study is based on the following criteria: Premenopausal female patients of any age; clinical evidence of SLE; uncontrolled diabetes (Fasting Blood Glucose≥ 160 mg/dl or HbA1c ≥ 7.5%); uncontrolled hypertension (Systolic blood pressure ≥ 160 mm Hg and/or diastolic blood pressure ≥ 100 mm Hg); impaired renal function with serum creatinine ≥ 1.4 mg/dl; well-documented history of Henoch-Schonlein Purpura (with an exception to previous nonspecific abdominal pain or rash ― which is not an exclusion criteria); clinical evidence of cirrhosis or chronic active liver disease; abnormal laboratory values at the time of study entry; absolute neutrophil count (ANC) < […], or hematocrit (HCT) < 28%; AER > 200 µgm/min; BUN ≥ 25 mg/dl; known contraindication or allergy to the administration of MMF or lisinopril; history of significant gastrointestinal disorder, e.g. severe chronic diarrhea or active peptic ulcer disease; active systemic infection or history of serious infection within one month of entry; known infection with HIV, hepatitis B or hepatitis C; other major organ system disease or malignancy other than skin cancer fully excised more than 5 years prior to entry; current or prior treatment with MMF or azathioprine; current or recent (within 30 days) exposure to any investigational drug.
(§1) Evaluation of the effects of MMF or ACE inhibitors alone or in combination on the status of proteinuria in patients with diabetic nephropathy was an open-labeled, randomized study. This study consisted of three arms as shown below. • 1. treatment with MMF alone • 2. treatment with combination of MMF and lisinopril • 3. treatment with lisinopril alone In addition, there were three phases of the study as shown below.
Phase 1: Screening Phase (Duration 1 to 4 weeks): 303 patients were screened on their first visit (V1), based on the given inclusion and exclusion criteria to determine if they were eligible for the study and to assess likelihood of compliance with study protocol. Micral test for every patient was done to determine the eligibility.
(§2) Phase 2: Treatment Phase (6 months): Every patient who qualified the screening phase was assigned one of the treatment arms. During this phase, patients were monitored closely and efficacy and safety parameters are assessed every month.
• 1. MMF: The dose of MMF given during the study was 500 mg per oral twice a day throughout the study. • 2. Lisinopril: The starting dose of lisinopril given in the study was 5 mg per oral twice a day. In case of hypertensive patients, the dose could be titrated upwards based on investigator's discretion, which in turn was based on the patient's "safety end point". • 3. MMF + Lisinopril: In the patients who received both the drugs, the dose of MMF was 500 mg per oral twice a day and lisinopril was 5 mg per oral twice a day. […]

The test system is the same in assay [3]. Briefly: Estimated GFR by the Cockcroft - Gault formula; open-labeled, randomized three-arm study. In kind it is in vivo, human. The protocol: A secondary end-point for this study was the GFR value obtained for each patient. This Secondary Endpoint included Estimated GFR, which was calculated using the following formulae: […]
Measurement of GFR Once all data was collected, Glomerular Filtration Rate GFR) was determined by the Cockcroft - Gault formula.
Estimated GFR(inml/min) = ([140−age(in years)∗weight(in Kg))/(Serum Creatinie level(inμmol/L)) [formula]
Estimated GFR(inml/min) = (1.23∗[140−age(in years)∗weight(in Kg))/(Serum Creatinie level(inμmol/L)) [formula]
as §1, §2
• 1. MMF: The dose of MMF given during the study was 500 mg per oral twice a day throughout the study. • 2. Lisinopril: The starting dose of lisinopril given in the study was 5 mg per oral twice a day. In case of hypertensive patients, the dose could be titrated upwards based on investigator's discretion, which in turn was based on the patient's "safety end point". • 3. MMF + Lisinopril: In the patients who received both the drugs, the dose of MMF was 500 mg per oral twice a day and lisinopril was 5 mg per oral twice a day. In the case of hypertensive patients, the dose of lisinopril could be titrated upwards based on investigator's discretion, which in turn was based on the patient's "safety end point".

Assay [4] has as its system patients with IgA nephropathy. The note with it: MMF 1-1.5g per day vs 30-40 mg of Prednisone per day; followed for seventy two weeks; preliminary report; cited from earlier work.
The mark [5] stands for this setting: Benefited patients, 1 month after treatment at V3, MMF 500 mg per oral twice a day.
Where [6] appears, read: Benefited patients, 3 month after treatment at V4, MMF 500 mg twice daily.
Where [7] appears, read: Benefited patients, V3 (1 month) versus baseline V2, MMF 500 mg per oral twice a day.
The mark [8] stands for this setting: Benefited patients, V4 (3 month) versus baseline V2, MMF 500 mg twice daily.
Setting [9] is: Not benefited patients, 1 month after treatment at V3, MMF 500 mg per oral twice a day.
The mark [10] stands for this setting: Not benefited patients, 3 month after treatment at V4, MMF 500 mg twice daily.
[11] abbreviates: Not benefited patients, V3 (1 month) versus baseline V2, MMF 500 mg per oral twice a day.
Where [12] appears, read: Benefited patients, 1 month after treatment at V3, lisinopril 5mg twice daily.
[13] abbreviates: Benefited patients, 3 month after treatment at V4, lisinopril 5mg twice daily.
The mark [14] stands for this setting: Benefited patients, 6 month after treatment at V5, lisinopril 5mg twice daily.
The mark [15] stands for this setting: Benefited patients, V3 (1 month) versus baseline V2, lisinopril 5mg twice daily.
[16] abbreviates: Benefited patients, V4 (3 month) versus baseline V2, lisinopril 5mg twice daily.
[17] abbreviates: Benefited patients, V5 (6 month) versus baseline V2, lisinopril 5mg twice daily.
The mark [18] stands for this setting: Not benefited patients, 1 month after treatment at V3, lisinopril 5mg twice daily.
Setting [19] is: Not benefited patients, 3 month after treatment at V4, lisinopril 5mg twice daily.
[20] abbreviates: Not benefited patients, 6 month after treatment at V5, lisinopril 5mg twice daily.
Where [21] appears, read: Not benefited patients, V3 (1 month) versus baseline V2, lisinopril 5mg twice daily.
Setting [22] is: Not benefited patients, V4 (3 month) versus baseline V2, lisinopril 5mg twice daily.
[23] abbreviates: Not benefited patients, V5 (6 month) versus baseline V2, lisinopril 5mg twice daily.

For the compound `C[C@H](CS)C(=O)N1CCC[C@H]1C(=O)O` [Captopril], the “progression of renal disease” value in assay [1] is “prevents or delays”.
Take `COc1c(C)c2c(c(O)c1C/C=C(\C)CCC(=O)OCCN1CCOCC1)C(=O)OC2` [MMF, mycophenolate mofetil]: the “albuminuria, glomerular macrophage infiltration and glomerulosclerosis” value in the assay with Diabetic rats (8 months) was “prevent”. For the same compound, the “effect on blood pressure, glomerular dynamics or blood glucose levels” value with Diabetic rats is reported as “no effect”. The “24h Urine protein (Mean)” value was found to be 112.73 in assay [2] (setting [5]), 260.8 in assay [2] (setting [6]), 696.3 in assay [2] (setting [9]) and 305.5 in assay [2] (setting [10]). Also, the results for the “Difference 24h Urine protein” value in assay [2] (setting [7]), in assay [2] (setting [8]) and in assay [2] (setting [11]) were -203.93, -136.6 and 361.7, respectively. Moreover, the “reduced proteinuria in % of the patients” value in assay [2] (after 1 month of treatment (V3 vs V2), MMF 500 mg per oral twice a day) worked out at 67%; in assay [2] (at V4 at the end of 3 months, 500 mg of MMF twice daily), 67%. Besides, the “GFR (Mean)” value in assay [3] (setting [5]) was 89.3 mL/min; in assay [3] (setting [6]) it was 81.85 mL/min; in assay [3] (setting [9]), 75.26 mL/min; in assay [3] (setting [10]), 49.9 mL/min. Further, the “Difference GFR” value in assay [3] (setting [7]) was 0.27 mL/min; in assay [3] (setting [8]) it was -1.35 mL/min; in assay [3] (setting [11]) it was 4.40 mL/min; in assay [3] (Not benefited patients, V4 (3 month) versus baseline V2, MMF 500 mg twice daily), 49.9 mL/min. For the same compound, the “decreasing proteinuria, protecting renal function and also decreasing blood lipid levels” value in assay [4] is recorded as “superior to Prednisone”.
In the case of `NCCCC[C@H](N[C@@H](CCc1ccccc1)C(=O)O)C(=O)N1CCC[C@H]1C(=O)O` [lisinopril], the “24h Urine protein (Mean)” value is reported as 236.66 in assay [2] (setting [12]); 161.15 in assay [2] (setting [13]); 248.4 in assay [2] (setting [14]); 211.25 in assay [2] (setting [18]); 289.2 in assay [2] (setting [19]); 626 in assay [2] (setting [20]). For the same compound, the “Difference 24h Urine protein” value is listed as -133.6 in assay [2] (setting [15]); -268.75 in assay [2] (setting [16]); -239.6 in assay [2] (setting [17]); 53.73 in assay [2] (setting [21]); 101.47 in assay [2] (setting [22]); 254.2 in assay [2] (setting [23]). Also, the “reduced proteinuria in % of the patients” value in assay [2] (at the end of 1 month (V3 vs V2), 5mg of lisinopril twice daily) was found to be 42%; in assay [2] (at the end of 3 month (V4 vs V2), 5mg of lisinopril twice daily) it was 40%; in assay [2] (at the end of 6 month (V5 vs V2), 5mg of lisinopril twice daily), 50%. The “GFR (Mean)” value in assay [3] (setting [12]) was 79.16 mL/min; in assay [3] (setting [13]), 89.55 mL/min; in assay [3] (setting [14]), 105.9 mL/min; in assay [3] (setting [18]) it was 63.97 mL/min; in assay [3] (setting [19]) it was 68.76 mL/min; in assay [3] (setting [20]) it was 76.4 mL/min. In addition, the “Difference GFR” value is -0.09 mL/min in assay [3] (setting [15]); 7.95 mL/min in assay [3] (setting [16]); 28.5 mL/min in assay [3] (setting [17]); 1.91 mL/min in assay [3] (setting [21]); 0.13 mL/min in assay [3] (setting [22]); -9.4 mL/min in assay [3] (setting [23]).
